Publication PMC10630888, “Nuclear ERK1/2 signaling potentiation enhances neuroprotection and cognition via Importinα1/KPNA2” (EMBO Molecular Medicine, 2023)
“And” between values parts separate entries of the source, which are not always exact repeats. Equal values may be shown once.

Legend:
[1] = system: p-ERK in dorsal striatum; experiment: In vivo dose response of striatal pERK; design: species or system mouse; settings: 1 h after administration, individual mice
Experimental: For the dose response study, 2‐month‐old CD1 male mice were injected with different doses of RB5 (1, 2.5, 5, 10, and 20 mg/kg, i.p.), whereas the control group was injected with 20 mg/kg (i.p.) of SCR peptide. Mice were perfused 1 h later with 4% PFA. For the time course study, mice were injected i.p. with 20 mg/kg of RB5 and perfused at different time points with 4% PFA (1, 3, 6, and 12 h). The control group was injected i.p. with 20 mg/kg of SCR. Brains were postfixed in 4% PFA for 24 h and cryoprotected overnight in sucrose 30% before immunohistochemistry against phospho‐ERK1/2.
Immunohistochemistry was performed as described in Papale et al ([2016]). […]
For in vivo immunohistochemistry experiments, images were acquired from the dorsal striatum using a Leica DM IRB microscope under a 20× objective. The number of p‐ERK, p‐MSK‐1, p‐ELK, p‐MEK‐1, p‐VG K+, c‐Fos, and DARPP‐32 positive cells was counted in 2–3 consecutive sections per mouse, bilaterally and averaged across the sections using the ImageJ software by a blind investigator to the condition. Estimation of nigral cell loss was assessed by quantifying the number of TH‐immunopositive neurons of the SNc in 360 μm‐spaced sections for each animal.

[2] = system: cleaved caspase-3; experiment: Cleaved caspase-3 in striatum of HdhQ111/+ mice treated with RB5; assay type: in vivo, mouse; settings: for cleaved caspase-3 in striatum (Fig 5 panel c): individual animals
Experimental: Immunofluorescence was performed as described in Papale et al ([2016]). Briefly, 1 h after blocking in 5% normal goat serum, slices were incubated overnight at 4°C with the following primary antibodies: anti‐phospho (Ser10)‐acetylated (Lys14) histone H3 (1:1,000, Millipore), anti‐phospho‐S6 ribosomal protein (Ser235/236) (1:200, Cell Signaling Technology) anti‐phospho‐S6 ribosomal protein (Ser240/244) (1:200, Cell Signaling), cleaved caspase‐3 (1:200, Cell Signaling Technology), anti‐mutant Huntingtin (1:100, Developmental Studies Hybridoma Bank, University of Iowa, #MW8), and NeuN (1:1,000, Millipore). Corresponding secondary antibodies (Alexa Fluor 546 conjugated anti‐mouse (1:200, Thermo Fisher Scientific), Alexa Fluor 488 conjugated anti‐rabbit (1:500, Thermo Fisher Scientific) and Pacific Blue goat anti‐mouse (1:200, Thermo Fisher Scientific) were incubated at room temperature for 1 h. Sections stained for mutant Huntingtin were incubated with DAPI for 20 min. Sections were subsequently mounted with fluorescent mounting medium (DAKO). Single and double‐labeled images ([…]) were obtained at 40× magnification from the striatum using a laser scanning confocal microscope (Leica SP2) equipped with the corresponding lasers and appropriate filter sets to avoid the crosstalk between the fluorochromes.
In ex‐vivo and in‐vivo immunofluorescence experiments, the number of p‐S6 or p‐AcH3 immunoreactive neurons among NeuN‐positive neurons was counted in 2–3 consecutive striatal sections per mouse in four fields per section. Caspase 3‐positive cells were quantified among NeuN‐positive neurons in each slide and expressed as percentage (ratio between caspase‐3‐positive cells and total NeuN‐positive neurons) for each field acquired through the slide. The number of cells showing mutant Huntingtin inclusions were expressed as a percentage of mutant Huntingtin‐positive cells among DAPI‐positive cells.

[3] = system: pERK1/2; experiment: pERK1/2 in dorsal striatum, MPTP model; assay type: in vivo, mouse
Experimental: Immunohistochemistry was performed as described in Papale et al ([2016]). Briefly, 1 h after blocking in 5% normal goat serum and 0.1% Triton X‐100 solution, free‐floating sections were incubated overnight at 4°C with one of the following primary antibodies: anti‐phospho‐p44/42 MAP kinase (Thr202/Tyr204) (1:200, Cell Signaling Technology #9101), anti‐phospho–Elk‐1 (Ser383) (1:100, Cell Signaling #9181), anti‐phospho‐Kv4.2 (Thr607)‐R (1:100, Santa Cruz sc22254‐R), anti‐phospho‐MSK‐1 (1:100 Cell Signaling Technology #9595), anti‐phospho‐MEK1/2 (Ser218/222) (1:100, sc‐7995 Santa Cruz Biotechnology), c‐Fos (1:100, sc‐52 Santa Cruz Biotechnology), tyrosine Hydroxylase (monoclonal 1:1,000, Sigma Aldrich, Italy) and anti‐DARPP‐32 (H3) (1:100, Santa Cruz Biotechnology, #sc‐271111) overnight at 4°C. […]
For in vivo immunohistochemistry experiments, images were acquired from the dorsal striatum using a Leica DM IRB microscope under a 20× objective. The number of p‐ERK, p‐MSK‐1, p‐ELK, p‐MEK‐1, p‐VG K+, c‐Fos, and DARPP‐32 positive cells was counted in 2–3 consecutive sections per mouse, bilaterally and averaged across the sections using the ImageJ software by a blind investigator to the condition. Estimation of nigral cell loss was assessed by quantifying the number of TH‐immunopositive neurons of the SNc in 360 μm‐spaced sections for each animal. […]

[4] = system: contextual fear memory; experiment: Contextual fear conditioning, rats, intra-hippocampal infusion; assay type: in vivo, rat; design: unit not given here; settings: 2 mg/ml, 1.0 μl/side into dorsal hippocampus 20 min prior to conditioning, individual rats
Experimental: Lister Hooded male rats (280–350 g) were housed in pairs, in holding rooms maintained at 21°C on a reversed‐light cycle (12 h light/dark; lights on at 10:00 P.M.). All experiments were conducted in the dark period of the rats. RB5 and Scramble peptides were infused into dorsal hippocampus.
Steel double guide cannulae aimed at the dorsal hippocampus (AP ‐3.50, relative to bregma) were surgical implanted under anesthesia at least 1 week prior to behavioral training and microinfusions. Bilateral infusions with either 2 mg/ml Scramble or RB5, 20 min prior to conditioning (pH 7.0, 1.0 μl/side, rate = […]) via the chronically indwelling cannula were carried out in awake rats using a syringe pump, connected to injectors (28 gauge, projecting 1 mm beyond the guide cannulae) by polyethylene tubing.
Conditioning was performed in one of two distinct contexts. These contexts were designed to differ in a number of distinctive characteristics including size, spatial location, odor, and lighting. During the 3 min conditioning training trial, rats received a single scrambled footshock (0.5 mA for 2 s) 2 min after being placed into one of the conditioning contexts. All rats were returned to the home cages after conditioning. Retrieval tests 3 h (postretrieval short‐term memory, STM), or 2 days (long‐term memory, LTM) after recall again consisted of exposing the rat to the conditioning context for 2 min not delivering a foot shock.
For all protocols, freezing behavior served as a measure of conditioned fear to the context during the conditioning and retrieval tests.

[5] = system: SC-CA1 synapses, CA1 pyramidal neurons; experiment: Whole-cell patch clamp, EPSCs at SC-CA1 synapses in hippocampal slices; assay type: cell-based, rat; settings: peptide 50 μM in intracellular solution, 30–35 min, mean, RB5 n = 12 cells, Scr n = 8 cells, 4 animals

What does the source list for “GRKKRRQRRRPPQGGGGGEPRRTEGVGPGVPGEVEMVKGQPFDV [RB5, six D-amino acids, acetylated N-terminus]”?
p-ERK-positive cells in dorsal striatum ([1]; 10 mg/kg i.p.): significant striatal ERK activation; p-ERK-positive cells in dorsal striatum ([1]; 20 mg/kg i.p.): significant striatal ERK activation; Striatal neuronal degeneration (cleaved caspase-3) ([2]; 10 month-old HdhQ111/+ mice, 20 mg/kg i.p. for 8 days): attenuated striatal neuronal degeneration; cleaved caspase-3 in striatum (Fig 5 panel c) ([2]; HdhQ111/+ mice): 2.0154 and 1.547 and 0.5041 and 1.332 and 1.4192; cleaved caspase-3 in striatum (Fig 5 panel c) ([2]; WT mice): 1.055 and 1.796 and 1.192 and 0.7349 and 0.4238; pERK1/2 in dorsal striatum of MPTP-treated animals ([3]; MPTP 20 mg/kg i.p. and RB5 20 mg/kg i.p. for 4 days): further enhanced; pERK1/2 in dorsal striatum (Fig 5 panel i) ([3]; MPTP model, individual animals): 320.238 and 468.254 and 523.81 and 295.238 and 784.921 and 378.571 and 564.683 and 633.333 and 362.302 and 348.413 and 268.452 and 448.016 and 342.46 and 421.429; Freezing behavior ([4]; LTM, 2 days): markedly enhanced and 33.3 and 58.3 and 83.3 and 50; Freezing behavior ([4]; PostUS): markedly enhanced and 83.3 and 66.7; Freezing behavior ([4]; PreUS): 0; Freezing behavior ([4]; STM, 3 h): markedly enhanced and 58.3 and 75 and 91.7 and 50 and 66.7

How did the “Average EPSC amplitude over last 5 min of recording, normalized to first minute” value [5] turn out when “SCR: ineffective Scramble version of RB5 containing a TAT sequence (GRKKRRQRRRPPRVGPGVPEGVGVAVFGVKEPGQTGDVGPVGE) [reference compound]” was run?
The value was “had no effect”.

What about the “Average EPSC amplitude over last 5 min of recording, normalized to first minute” value ([5]; listed as Scr) of the same substance?
Its value is 0.9389.

What about the Freezing behavior ([4]; LTM, 2 days) of the same substance?
Its Freezing behavior is 33.3 (3×) and 58.3 and 16.7 (2×).

And the Freezing behavior ([4]; PostUS)?
The Freezing behavior was 16.7 (2×) and 50 (2×) and 33.3 and 0.

What about the Freezing behavior ([4]; PreUS) of the same substance?
The Freezing behavior was 0.

What about the Freezing behavior ([4]; STM, 3 h) of the same substance?
Its Freezing behavior is 33.3 (2×) and 41.7 and 16.7 and 25 and 8.3.
